{"source": "ChEMBL document CHEMBL1130484", "about": "“Tricyclic -lactams: Total synthesis and antibacterial activity of 5-methoxyethyl and 5-hydroxyethyl trinems” (1997)", "format_in_all_cases": "functional", "key": {"[1]": {"test_system": "Escherichia coli", "assay": "In vitro antibacterial activity of compound against Escherichia coli 851E was determined"}, "[2]": {"test_system": "Pseudomonas aeruginosa", "assay": "In vitro antibacterial activity of compound against Pseudomonas aeruginosa 2032E WT was determined"}, "[3]": {"test_system": "Enterococcus faecalis", "assay": "In vitro antibacterial activity of compound against Enterococcus faecalis 850"}, "[4]": {"test_system": "Bacteroides fragilis", "assay": "In vitro antibacterial activity of compound against Bacteroides fragilis 2017E was determined"}, "[5]": {"test_system": "Staphylococcus aureus", "assay": "In vitro antibacterial activity of compound against Staphylococcus aureus 11311 MET-R"}, "[6]": {"test_system": "Staphylococcus aureus", "assay": "In vitro antibacterial activity of compound against Staphylococcus aureus 853E PEN-R"}, "[7]": {"test_system": "Escherichia coli", "assay": "In vitro antibacterial activity of compound against Escherichia coli 1852E PM was determined"}, "[8]": {"test_system": "Haemophilus influenzae", "assay": "In vitro antibacterial activity of compound against Haemophilus influenzae ATCC 49247 was determined"}, "[9]": {"test_system": "Pseudomonas aeruginosa", "assay": "In vitro antibacterial activity of compound against Pseudomonas aeruginosa 2033E PER"}, "[10]": {"test_system": "Enterobacter cloacae", "assay": "In vitro antibacterial activity of compound against Enterobacter cloacae 3647 was determined"}, "[11]": {"test_system": "Klebsiella pneumoniae", "assay": "In vitro antibacterial activity of compound against Klebsiella pneumoniae 3226 was determined"}, "[12]": {"test_system": "Proteus mirabilis", "assay": "In vitro antibacterial activity of compound against Proteus mirabilis 3558 was determined"}, "[13]": {"test_system": "Pseudomonas aeruginosa", "assay": "In vitro antibacterial activity of compound against Pseudomonas aeruginosa 1911E was determined"}, "[14]": {"test_system": "Escherichia coli", "assay": "In vitro antibacterial activity of compound against Escherichia coli 1919E PM/TEM-1 was determined"}, "[15]": {"test_system": "Staphylococcus aureus", "assay": "In vitro antibacterial activity of compound against Staphylococcus aureus 663 PEN-S"}, "[16]": {"test_system": "Clostridium perfringens", "assay": "In vitro antibacterial activity of compound against Clostridium perfringens 615E was determined"}, "[17]": {"test_system": "Escherichia coli", "assay": "In vitro antibacterial activity of compound against Escherichia coli 1850E WT was determined"}, "[18]": {"test_system": "Streptococcus pneumoniae", "assay": "In vitro antibacterial activity of compound against Streptococcus pneumoniae 3512 was determined"}}, "data": [{"smiles": "COCC[C@H]1CC[C@H]2C(=C(C(=O)O)N3C(=O)[C@H]([C@@H](C)O)[C@@H]23)C1", "values": [{"measurement": "MIC", "setting": "[1]", "result": 8, "unit": "µg/mL"}, {"measurement": "MIC", "setting": "[2]", "result": "> 32", "unit": "µg/mL"}, {"measurement": "MIC", "setting": "[3]", "result": 8, "unit": "µg/mL"}, {"measurement": "MIC", "setting": "[4]", "result": 16, "unit": "µg/mL"}, {"measurement": "MIC", "setting": "[5]", "result": "> 32", "unit": "µg/mL"}, {"measurement": "MIC", "setting": "[6]", "result": 1, "unit": "µg/mL"}, {"measurement": "MIC", "setting": "[7]", "result": 1, "unit": "µg/mL"}, {"measurement": "MIC", "setting": "[8]", "result": 4, "unit": "µg/mL"}, {"measurement": "MIC", "setting": "[9]", "result": 16, "unit": "µg/mL"}, {"measurement": "MIC", "setting": "[10]", "result": 32, "unit": "µg/mL"}, {"measurement": "MIC", "setting": "[11]", "result": 4, "unit": "µg/mL"}, {"measurement": "MIC", "setting": "[12]", "result": 8, "unit": "µg/mL"}, {"measurement": "MIC", "setting": "[13]", "result": "> 32", "unit": "µg/mL"}, {"measurement": "MIC", "setting": "[14]", "result": 2, "unit": "µg/mL"}, {"measurement": "MIC", "setting": "[15]", "result": 0.5, "unit": "µg/mL"}, {"measurement": "MIC", "setting": "[16]", "result": 2, "unit": "µg/mL"}, {"measurement": "MIC", "setting": "[17]", "result": 8, "unit": "µg/mL"}, {"measurement": "MIC", "setting": "[18]", "result": 0.12, "unit": "µg/mL"}]}, {"smiles": "C[C@@H](O)[C@H]1C(=O)N2C(C(=O)O)=C3C[C@@H](CCO)CC[C@@H]3[C@H]12", "values": [{"measurement": "MIC", "setting": "[1]", "result": 1, "unit": "µg/mL"}, {"measurement": "MIC", "setting": "[2]", "result": "> 32", "unit": "µg/mL"}, {"measurement": "MIC", "setting": "[3]", "result": 4, "unit": "µg/mL"}, {"measurement": "MIC", "setting": "[4]", "result": 16, "unit": "µg/mL"}, {"measurement": "MIC", "setting": "[5]", "result": "> 32", "unit": "µg/mL"}, {"measurement": "MIC", "setting": "[6]", "result": 0.5, "unit": "µg/mL"}, {"measurement": "MIC", "setting": "[7]", "result": 2, "unit": "µg/mL"}, {"measurement": "MIC", "setting": "[8]", "result": 1, "unit": "µg/mL"}, {"measurement": "MIC", "setting": "[9]", "result": 4, "unit": "µg/mL"}, {"measurement": "MIC", "setting": "[10]", "result": 4, "unit": "µg/mL"}, {"measurement": "MIC", "setting": "[11]", "result": 2, "unit": "µg/mL"}, {"measurement": "MIC", "setting": "[12]", "result": 8, "unit": "µg/mL"}, {"measurement": "MIC", "setting": "[13]", "result": "> 32", "unit": "µg/mL"}, {"measurement": "MIC", "setting": "[14]", "result": 2, "unit": "µg/mL"}, {"measurement": "MIC", "setting": "[15]", "result": 0.25, "unit": "µg/mL"}, {"measurement": "MIC", "setting": "[16]", "result": 4, "unit": "µg/mL"}, {"measurement": "MIC", "setting": "[17]", "result": 2, "unit": "µg/mL"}, {"measurement": "MIC", "setting": "[18]", "result": 0.25, "unit": "µg/mL"}]}, {"smiles": "CO[C@H]1CC[C@H]2C(=C(C(=O)O)N3C(=O)[C@H]([C@@H](C)O)[C@@H]23)C1", "values": [{"measurement": "MIC", "setting": "[1]", "result": 8, "unit": "µg/mL"}, {"measurement": "MIC", "setting": "[2]", "result": "> 32", "unit": "µg/mL"}, {"measurement": "MIC", "setting": "[3]", "result": 8, "unit": "µg/mL"}, {"measurement": "MIC", "setting": "[4]", "result": 16, "unit": "µg/mL"}, {"measurement": "MIC", "setting": "[5]", "result": "> 32", "unit": "µg/mL"}, {"measurement": "MIC", "setting": "[6]", "result": 1, "unit": "µg/mL"}, {"measurement": "MIC", "setting": "[7]", "result": 1, "unit": "µg/mL"}, {"measurement": "MIC", "setting": "[8]", "result": 4, "unit": "µg/mL"}, {"measurement": "MIC", "setting": "[9]", "result": 16, "unit": "µg/mL"}, {"measurement": "MIC", "setting": "[10]", "result": 32, "unit": "µg/mL"}, {"measurement": "MIC", "setting": "[11]", "result": 4, "unit": "µg/mL"}, {"measurement": "MIC", "setting": "[12]", "result": 8, "unit": "µg/mL"}, {"measurement": "MIC", "setting": "[13]", "result": "> 32", "unit": "µg/mL"}, {"measurement": "MIC", "setting": "[14]", "result": 2, "unit": "µg/mL"}, {"measurement": "MIC", "setting": "[15]", "result": 0.5, "unit": "µg/mL"}, {"measurement": "MIC", "setting": "[16]", "result": 2, "unit": "µg/mL"}, {"measurement": "MIC", "setting": "[17]", "result": 8, "unit": "µg/mL"}, {"measurement": "MIC", "setting": "[18]", "result": 0.12, "unit": "µg/mL"}]}, {"smiles": "CO[C@H]1CCC[C@H]2C1=C(C(=O)[O-])N1C(=O)[C@H]([C@@H](C)O)[C@@H]21.[Na+]", "note": "[SANFETRINEM SODIUM]", "values": [{"measurement": "MIC", "setting": "[3]", "result": 1, "unit": "µg/mL"}, {"measurement": "MIC", "setting": "[4]", "result": 0.06, "unit": "µg/mL"}, {"measurement": "MIC", "setting": "[6]", "result": 0.2, "unit": "µg/mL"}, {"measurement": "MIC", "setting": "[13]", "result": "> 32", "unit": "µg/mL"}, {"measurement": "MIC", "setting": "[14]", "result": 0.5, "unit": "µg/mL"}, {"measurement": "MIC", "setting": "[16]", "result": 0.03, "unit": "µg/mL"}, {"measurement": "MIC", "setting": "[17]", "result": 0.5, "unit": "µg/mL"}, {"measurement": "MIC", "setting": "[18]", "result": 0.01, "unit": "µg/mL"}]}, {"smiles": "C[C@@H](O)[C@H]1C(=O)N2C(C(=O)O)=C(SCCNC=N)C[C@H]12", "note": "[IMIPENEM ANHYDROUS]", "values": [{"measurement": "MIC", "setting": "[1]", "result": 0.5, "unit": "µg/mL"}, {"measurement": "MIC", "setting": "[2]", "result": 4, "unit": "µg/mL"}, {"measurement": "MIC", "setting": "[3]", "result": 4, "unit": "µg/mL"}, {"measurement": "MIC", "setting": "[4]", "result": 0.2, "unit": "µg/mL"}, {"measurement": "MIC", "setting": "[5]", "result": "> 32", "unit": "µg/mL"}, {"measurement": "MIC", "setting": "[6]", "result": 0.06, "unit": "µg/mL"}, {"measurement": "MIC", "setting": "[7]", "result": 0.5, "unit": "µg/mL"}, {"measurement": "MIC", "setting": "[8]", "result": 1, "unit": "µg/mL"}, {"measurement": "MIC", "setting": "[9]", "result": 0.2, "unit": "µg/mL"}, {"measurement": "MIC", "setting": "[10]", "result": 2, "unit": "µg/mL"}, {"measurement": "MIC", "setting": "[11]", "result": 0.5, "unit": "µg/mL"}, {"measurement": "MIC", "setting": "[12]", "result": 8, "unit": "µg/mL"}, {"measurement": "MIC", "setting": "[13]", "result": 4, "unit": "µg/mL"}, {"measurement": "MIC", "setting": "[14]", "result": 0.5, "unit": "µg/mL"}, {"measurement": "MIC", "setting": "[15]", "result": 0.06, "unit": "µg/mL"}, {"measurement": "MIC", "setting": "[16]", "result": 0.2, "unit": "µg/mL"}, {"measurement": "MIC", "setting": "[17]", "result": 0.5, "unit": "µg/mL"}, {"measurement": "MIC", "setting": "[18]", "result": "< 0.01", "unit": "µg/mL"}]}]}
